According to patent US20250387481A1, “PRE-TREATED T CELLS FOR USE AS A MEDICAMENT” (STICHTING HET NEDERLANDS KANKER INSTITUUT-ANTONI VAN …, priority 2022, published 2025):

Columns and labels:
MMTV-PyMT organoids = test: Co-culture of pre-treated splenic T cells with MMTV-PyMT organoids (MTT, cleaved-caspase 3); assay type: cell-based, mouse; details: CD4 or CD8 T cells pre-treated with docetaxel
Description: Preparation of T cells: T cells isolated from mouse spleens or from mouse mammary tumors were cultured in Roswell Park Memorial Institute (RPMI) 1640 Medium (Thermo Fisher Scientific, Cat. No. 21875034) containing FBS (10%, Thermo Fisher Scientific, Cat. No. A4766801), Penicillin/streptomycin (10,000 U/ml; Thermo Fisher Scientific, Cat. No. 15140-122), IL2 (Thermo Fisher Scientific, Cat. No. PMC0025), β-mercaptoethanol (50 μmol/L) and Ultraglutamine (2 mmol/L, Lonza, Cat. No. BE17-605E/U1). T cells were kept in 20% O2, 5% CO2 and at 37 degrees Celsius
In order to assess the direct effects of docetaxel on T cell activation for T cells isolated from the spleen, T cells were cultured in the absence of CD3 and CD28 antibodies.
For T cells isolated from mouse mammary tumors, T cells were directly co-cultured with tumor organoids after FACS isolation. For T cells isolated from the spleen, T cells were treated for 72 h with PBS or with docetaxel (docetaxel 10 nmol/L), in the presence or absence of an LCKi (10 μmol/L, Merck Millipore, Cat. No. 213743-31-8). To evaluate the docetaxel-specificity of our observations, T cells were treated with paclitaxel 10 nmol/L or carboplatin 50 μmol/L for 72 h. […]
Following co-culture, medium was removed, and cultures were washed in PBS to remove T cells. […] Plates were read with a 565 nm wavelength. […]

KB1P tumors = test: Drug treatment in vivo of mice bearing KB1P tumors; design: species or system mouse
Description: For tumor generation, tumor organoids were transplanted into the 4th mammary fat pad of FVB female mice. Rimadyl (0.067 mg/ml, Zoetis) was administered to mice in the drinking water from 24 h before surgery and for 48 h after surgery. Mice were also treated with temgesic (0.1 mg/kg, Indivior Europe Limited), 1 hr before and 12 h after surgery. Mice were anesthetized with isoflurane (2%, v/v) and their eyes were covered with duratears (Alcon). About 100,000 single cells derived from KB1P organoids or 200,000 single cells derived from MMTV-PyMT organoids were injected in 30 μl of BME (Amsbio, Cat. No. 3533-005-02). Mice were weighed and monitored three times a week after transplantation of tumor organoids. Tumor volume was measured with calipers three times weekly. The researcher performing the measurement of tumor volume was blinded to the treatment group. For survival experiments, endpoint was reached when tumor reached 2000 mm3. For specific experiments, reference is made to the schematic representations of treatment timelines depicted in the figures.
Once tumors were established and reached a size of ˜7×7 mm, mice were randomized into treatment groups with the following drug dosages and timeline: • AC+T treatment: every 14 days, cyclophosphamide (144 mg/kg, administered via intraperitoneal injection), doxorubicin (5 mg/kg, administered via intravenous injection) and docetaxel (25 mg/kg, resuspended in acetonitrile containing 0.1% acetic acid, administered via intravenous injection). Doxorubicin hydrochloride (Adriamycin) and cyclophosphamide (C), when combined in a treatment, are herein referred to as “AC”. Taxanes, as broadly described and disclosed herein, are referred to as “T”. In one example, said taxane is docetaxel. • AC treatment: every 14 days, cyclophosphamide (144 mg/kg, administered via intraperitoneal injection) and doxorubicin (5 mg/kg administered via intravenous injection). • Docetaxel treatment: every 14 days, docetaxel (25 mg/kg, re-suspended in acetonitrile containing 0.1% acetic acid and administered via intravenous injections). • Vehicle control for chemotherapy: every 14 days, the same volume of the vehicle as the corresponding chemotherapy was administered to mice. […]

CC(=O)O[C@@]12CO[C@@H]1C[C@H](O)[C@@]1(C)C(=O)[C@H](O)C3=C(C)[C@@H](OC(=O)[C@H](O)[C@@H](NC(=O)OC(C)(C)C)c4ccccc4)C[C@@](O)([C@@H](OC(=O)c4ccccc4)[C@H]21)C3(C)C [docetaxel]
T cell-mediated killing in presence or absence of LCKi (MMTV-PyMT organoids): TCR-independent increase of T cell-mediated killing
anti-tumor effects of docetaxel (survival) upon T cell depletion (KB1P tumors; depletion of CD4 alone, CD8 alone or both): abrogated the anti-tumor effects
tumor outgrowth (KB1P tumors; docetaxel 25 mg/kg intravenous every 14 days vs vehicle): delayed tumor outgrowth
CD4 and CD8 T cell infiltration (immunohistochemistry) (KB1P tumors; docetaxel vs vehicle): enhanced CD4 and CD8 T cell infiltration
accumulation of mitotic figures in tumors (KB1P tumors; tumors isolated 24 h after the second docetaxel administration): did not observe an accumulation of mitotic figures
